The values below come from US20060264460A1 (Wyeth, priority 2005, published 2006).

Broadly, the IC50 is the concentration that inhibits the measured activity by half.

The first test deals with T1, human Cot/Tpl2 kinase (Homo sapiens, UniProt P41279).
T1 construct: human Cot/Tpl2 kinase construct encoding residues 30-398; 6His (N); made in house; host or cells: Sf9 insect cells, baculovirus system (BD Biosciences)
T1 sequence (P41279 30-398): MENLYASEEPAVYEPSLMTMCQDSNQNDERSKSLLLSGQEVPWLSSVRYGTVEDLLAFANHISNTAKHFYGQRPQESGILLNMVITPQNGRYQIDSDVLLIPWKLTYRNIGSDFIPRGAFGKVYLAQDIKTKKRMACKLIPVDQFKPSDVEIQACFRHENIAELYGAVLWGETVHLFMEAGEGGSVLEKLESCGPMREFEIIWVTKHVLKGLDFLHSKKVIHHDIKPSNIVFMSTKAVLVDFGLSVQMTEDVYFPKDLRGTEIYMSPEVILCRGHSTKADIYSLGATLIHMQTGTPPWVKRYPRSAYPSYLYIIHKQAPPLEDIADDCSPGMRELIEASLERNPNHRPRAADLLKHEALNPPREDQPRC
Nature of the test: Tpl2/Cot kinase assay: GST-MEK1 phosphorylation detected by ELISA (DELFIA Eu). In kind it is biochemical. Particulars: Tpl2/Cot kinase, GST-MEK1 substrate, 50 uM ATP. The gist of the method:
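His-tagged human Tpl2 from Sf9 cells, Ni-affinity and size-exclusion purified (monomer). 0.4 nM Tpl2 with 35 nM GST-MEK1, 50 uM ATP, MOPS pH 7.2, 1% DMSO, 1 h at 30° C; EDTA stop. MEK1 Ser217/221 phosphorylation detected by anti-phospho-MEK1 and Eu-labelled secondary ELISA; IC50 fitted.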
In general terms: An ELISA detects its analyte on a solid surface through an enzyme-linked reagent.
With `COCCNCC(=O)N1CCCC(CNc2cc(Cl)c3ncc(C#N)c(Nc4ccc(F)c(Cl)c4)c3c2)C1` (stereo not drawn) [Example 904], inhibition was half-maximal at 260 nM (IC50). On to `CS(=O)(=O)NCCCn1cc(CNc2cc(Cl)c3ncc(C#N)c(Nc4ccc(F)c(Cl)c4)c3c2)nn1` [Example 905], for which inhibition was half-maximal at 2.8 nM (IC50). Still for that read-out and setting: the value for `N#Cc1cnc2c(Cl)cc(NCc3cn(CCCNS(=O)(=O)C(F)(F)F)nn3)cc2c1Nc1ccc(F)c(Cl)c1` [Example 906] was 1.3 nM; that for `CC(C)S(=O)(=O)NCCCn1cc(CNc2cc(Cl)c3ncc(C#N)c(Nc4ccc(F)c(Cl)c4)c3c2)nn1` [Example 907] was 4.5 nM. The same measure, in the same setting: the value for `CC(C)NC(=O)NCCCn1cc(CNc2cc(Cl)c3ncc(C#N)c(Nc4ccc(F)c(Cl)c4)c3c2)nn1` [Example 908] was 1 nM. On the same count and under the same terms, the value for `CNC(=O)NCCCn1cc(CNc2cc(Cl)c3ncc(C#N)c(Nc4ccc(F)c(Cl)c4)c3c2)nn1` [Example 909] was 1 nM.

Compound `CC(=O)NCCCn1cc(CNc2cc(Cl)c3ncc(C#N)c(Nc4ccc(F)c(Cl)c4)c3c2)nn1` [Example 910] showed an IC50 of 0.7 nM.

Compound `CC(C)C(=O)NCCCn1cc(CNc2cc(Cl)c3ncc(C#N)c(Nc4ccc(F)c(Cl)c4)c3c2)nn1` [Example 911] gave an IC50 of 2.4 nM. In turn, `N#Cc1cnc2c(Cl)cc(NCc3cn(CCCNC(=O)C4CC4)nn3)cc2c1Nc1ccc(F)c(Cl)c1` [Example 912] yielded an IC50 of 1.9 nM.

In turn, `CC(C)CN(CCCn1cc(CNc2cc(Cl)c3ncc(C#N)c(Nc4ccc(F)c(Cl)c4)c3c2)nn1)CC(C)C` [Example 913] registered an IC50 of 45 nM. As to `N#Cc1cnc2c(Cl)cc(NCc3cn(CCCNC4CCCC4)nn3)cc2c1Nc1ccc(F)c(Cl)c1` [Example 914], the IC50 came to 52 nM. Still for that read-out and setting: the value for `N#Cc1cnc2c(Cl)cc(N(C=O)Cc3cn(CCCNC=O)nn3)cc2c1Nc1ccc(F)c(Cl)c1` [Example 915] was 170 nM; that for `CS(=O)(=O)NCCCn1cc(CN(C=O)c2cc(Cl)c3ncc(C#N)c(Nc4ccc(F)c(Cl)c4)c3c2)nn1` [Example 916] was 830 nM.

Regarding `COCn1cc(CNc2cc(Br)c3ncc(C#N)c(Nc4ccc(F)c(Cl)c4)c3c2)nn1` [Example 917], the IC50 came out at 76 nM. As to `N#Cc1cnc2c(Cl)cc(NCc3cn(CCc4ccncc4)nn3)cc2c1Nc1ccc(F)c(Cl)c1` [Example 918], the midpoint of inhibition, the IC50, lay at 0.9 nM. In turn, `N#Cc1cnc2c(Br)cc(NCc3cn(CCc4ccncc4)nn3)cc2c1Nc1ccc(F)c(Cl)c1` [Example 919] returned an IC50 of 1.3 nM. For `CN(C)CCNCC(=O)N1CCCC(CNc2cc(Cl)c3ncc(C#N)c(Nc4ccc(F)c(Cl)c4)c3c2)C1` (stereo not drawn) [Example 920], inhibition was half-maximal at 860 nM (IC50).

The test is the same for the next values; noted with them: Tpl2/Cot kinase, GST-MEK1 substrate, 50 uM ATP, 1 h at 30° C.; Table 2.
In the case of `N#Cc1cnc2c(Cl)cc(NCC3CCCN(C(=O)CNCc4cccnc4)C3)cc2c1Nc1ccc(F)c(Cl)c1` (stereo not drawn) [Example 921], half-maximal inhibition (IC50) required 540 nM. Compound `N#Cc1cnc2c(Cl)cc(NCC3CCCN(C(=O)CNCc4ccccn4)C3)cc2c1Nc1ccc(F)c(Cl)c1` (stereo not drawn) [Example 922] had an IC50 of 1690 nM. The same measure, in the same setting: the value for `N#Cc1cnc2c(Cl)cc(NCC3CCCN(C(=O)CNc4cccnc4)C3)cc2c1Nc1ccc(F)c(Cl)c1` (stereo not drawn) [Example 923] was 560 nM; that for `N#Cc1cnc2c(Cl)cc(NCC3CCCN(C(=O)CCl)C3)cc2c1Nc1ccc(F)c(Cl)c1` (stereo not drawn) [Example 924] was 1320 nM; that for `CC(C)(C)OC(=O)N1CCC(n2cc(CNc3cc(Cl)c4ncc(C#N)c(Nc5ccc(F)c(Cl)c5)c4c3)nn2)CC1` [Example 925] was 73 nM. `CN(C)C(=O)N1CCC(n2cc(CNc3cc(Cl)c4ncc(C#N)c(Nc5ccc(F)c(Cl)c5)c4c3)nn2)CC1` [Example 929] registered an IC50 of 7 nM. Still for that read-out and setting: the value for `CC(=O)N1CCC(n2cc(CNc3cc(Cl)c4ncc(C#N)c(Nc5ccc(F)c(Cl)c5)c4c3)nn2)CC1` [Example 930] was 3.3 nM; that for `CCNC(=O)N1CCC(n2cc(CNc3cc(Cl)c4ncc(C#N)c(Nc5ccc(F)c(Cl)c5)c4c3)nn2)CC1` [Example 931] was 18.9 nM. `N#Cc1cnc2c(Cl)cc(NC[C@H]3C[C@H](O)CO3)cc2c1Nc1ccc(F)c(Cl)c1` [Example 932] gave an IC50 of 410 nM. Still for that read-out and setting: the value for `C[C@H](CNc1ccccn1)Nc1cc(Cl)c2ncc(C#N)c(Nc3ccc(F)c(Cl)c3)c2c1` [Example 933] was 1990 nM; that for `N#Cc1cnc2c(Cl)cc(NCc3cn(C4CCOC4=O)nn3)cc2c1Nc1ccc(F)c(Cl)c1` (stereo not drawn) [Example 934] was 18 nM; that for `N#Cc1cnc2c(Cl)cc(NC[C@H]3C[C@H](OCc4ccccc4)CO3)cc2c1Nc1ccc(F)c(Cl)c1` [Example 935] was greater than 3000 nM. For `N#Cc1cnc2c(Cl)cc(NCc3cn(CCC4CCN(CC5CC5)CC4)nn3)cc2c1Nc1ccc(F)c(Cl)c1` [Example 936], the IC50 stood at 130 nM. For the compound `N#Cc1cnc2c(Cl)cc(NCc3cn(CCC4CCN(C5CCC5)CC4)nn3)cc2c1Nc1ccc(F)c(Cl)c1` [Example 937], the IC50 was found to be 150 nM.

In turn, `N#Cc1cnc2c(Cl)cc(NCc3cn(CCC4CCN(C5CCCC5)CC4)nn3)cc2c1Nc1ccc(F)c(Cl)c1` [Example 938] displayed an IC50 of 200 nM. Still for that read-out and setting: the value for `N#Cc1cnc2c(Cl)cc(NC[C@H]3C[C@H](OCc4cccnc4)CO3)cc2c1Nc1ccc(F)c(Cl)c1` [Example 939] was greater than 3000 nM. `N#Cc1cnc2c(Cl)cc(OCc3cn(C4CCNCC4)nn3)cc2c1Nc1ccc(F)c(Cl)c1` [Example 940] displayed an IC50 of 150 nM. Still for that read-out and setting: the value for `CC(C)(C)OC(=O)N1CCC(n2cc(COc3cc(Cl)c4ncc(C#N)c(Nc5ccc(F)c(Cl)c5)c4c3)nn2)CC1` [Example 941] was 520 nM.

`CC(C)N1CCC[C@H]1CCn1cc(CNc2cc(Br)c3ncc(C#N)c(Nc4ccc(F)c(Cl)c4)c3c2)nn1` [Example 942] displayed an IC50 of 19 nM.

Take `CC(C)(C)OC(=O)N1CCC(n2cc(CNc3cc(Cl)c4ncc(C#N)c(NC5CCCC5)c4c3)nn2)CC1` [Example 943]: the IC50 is greater than 3000 nM. The same measure, in the same setting: the value for `CN1CCCC1CCn1cc(CNc2cc(Cl)c3ncc(C#N)c(NC4CCCC4)c3c2)nn1` (stereo not drawn) [Example 944] was greater than 3000 nM; that for `N#Cc1cnc2c(Cl)cc(NCc3cn(CCN4CCCCCC4)nn3)cc2c1NC1CCCC1` [Example 945] was 630 nM. Still for that read-out and setting: the value for `CN(C)CCn1cc(CNc2cc(Cl)c3ncc(C#N)c(NC4CCCC4)c3c2)nn1` [Example 946] was 590 nM; that for `CN1CCCC1CCn1cc(CNc2cc(Cl)c3ncc(C#N)c(NC4CCCCCC4)c3c2)nn1` (stereo not drawn) [Example 947] was 700 nM; that for `CC(C)(C)OC(=O)N1CCC(n2cc(CNc3cc(Cl)c4ncc(C#N)c(NC5CCCCCC5)c4c3)nn2)CC1` [Example 948] was 2310 nM. Still for that read-out and setting: the value for `N#Cc1cnc2c(Cl)cc(NCc3cn(CCN4CCCCCC4)nn3)cc2c1NC1CCCCCC1` [Example 949] was 460 nM. `CN(C)CCn1cc(CNc2cc(Cl)c3ncc(C#N)c(NC4CCCCCC4)c3c2)nn1` [Example 950] yielded an IC50 of 620 nM. On the same count and under the same terms, the value for `CN1CCCC1CCn1cc(CNc2cc(Cl)c3ncc(C#N)c(NC4CCC4)c3c2)nn1` (stereo not drawn) [Example 951] was 460 nM; that for `CN1CCCC1CCn1cc(CNc2cc(Cl)c3ncc(C#N)c(NC4CCOCC4)c3c2)nn1` (stereo not drawn) [Example 952] was 1130 nM. `CC(C)(C)OC(=O)N1CCC(n2cc(CNc3cc(Cl)c4ncc(C#N)c(NC5CCC5)c4c3)nn2)CC1` [Example 953] displayed an IC50 of 810 nM. In turn, `N#Cc1cnc2c(Cl)cc(NCc3cn(CCN4CCCCC4)nn3)cc2c1NC1CCC1` [Example 954] returned an IC50 of 520 nM.

Compound `N#Cc1cnc2c(Cl)cc(NCc3cn(CCN4CCCCCC4)nn3)cc2c1NC1CCC1` [Example 955] came in with an IC50 of 440 nM. `CN(C)CCn1cc(CNc2cc(Cl)c3ncc(C#N)c(NC4CCC4)c3c2)nn1` [Example 956] gave an IC50 of 730 nM.

In turn, `CC(C)(C)OC(=O)N1CCN(CCn2cc(CNc3cc(Cl)c4ncc(C#N)c(Nc5ccc(F)c(Cl)c5)c4c3)nn2)CC1` [Example 957] showed an IC50 greater than 3000 nM. For `N#Cc1cnc2c(Cl)cc(NCc3cn(CCN4CCNCC4)nn3)cc2c1Nc1ccc(F)c(Cl)c1` [Example 958], the IC50 was 310 nM.

Compound `CC(=O)N1CCN(CCn2cc(CNc3cc(Cl)c4ncc(C#N)c(Nc5ccc(F)c(Cl)c5)c4c3)nn2)CC1` [Example 959] had an IC50 of 92 nM. On the same count and under the same terms, the value for `CC(C)(C)CC(=O)N1CCN(CCn2cc(CNc3cc(Cl)c4ncc(C#N)c(Nc5ccc(F)c(Cl)c5)c4c3)nn2)CC1` [Example 960] was 130 nM; that for `CN(C)C(=O)N1CCN(CCn2cc(CNc3cc(Cl)c4ncc(C#N)c(Nc5ccc(F)c(Cl)c5)c4c3)nn2)CC1` [Example 961] was 31 nM. On to `CCNC(=O)N1CCN(CCn2cc(CNc3cc(Cl)c4ncc(C#N)c(Nc5ccc(F)c(Cl)c5)c4c3)nn2)CC1` [Example 962], for which half-maximal inhibition (IC50) was put at 23 nM. Same read-out and setting: the value for `CN1CCN(CCn2cc(CNc3cc(Cl)c4ncc(C#N)c(Nc5ccc(F)c(Cl)c5)c4c3)nn2)CC1` [Example 963] was 650 nM; that for `CCN1CCN(CCn2cc(CNc3cc(Cl)c4ncc(C#N)c(Nc5ccc(F)c(Cl)c5)c4c3)nn2)CC1` [Example 964] was 260 nM.

For `CC(C)N1CCN(CCn2cc(CNc3cc(Cl)c4ncc(C#N)c(Nc5ccc(F)c(Cl)c5)c4c3)nn2)CC1` [Example 965], 430 nM corresponded to half-maximal inhibition (IC50). Still for that read-out and setting: the value for `N#Cc1cnc2c(Cl)cc(NCc3cn(CCN4CCN(CC5CC5)CC4)nn3)cc2c1Nc1ccc(F)c(Cl)c1` [Example 966] was 150 nM; that for `CN1CCCC1CCn1cc(CNc2ccc3ncc(C#N)c(NC4CCCCC4)c3c2)nn1` (stereo not drawn) [Example 967] was 460 nM. Still for that read-out and setting: the value for `CC(C)(C)OC(=O)N1CCC(n2cc(CNc3ccc4ncc(C#N)c(NC5CCCCC5)c4c3)nn2)CC1` [Example 968] was 670 nM; that for `CN(C)CCn1cc(CNc2ccc3ncc(C#N)c(NC4CCCCC4)c3c2)nn1` [Example 969] was 380 nM.
